Target: S. aureus 133 Translation
Test: S. aureus in vitro transcription-translation assay (firefly luciferase, S30 extract)
Format: biochemical
Settings: 50% inhibition of the translation of firefly luciferase
Description: In Vitro Transcription-Translation with S. aureus Extracts
Construction of an S. aureus luciferase Reporter Plasmid
In order to construct a reporter plasmid which can be used in an in vitro transcription-translation assay from S. aureus the plasmid pBESTluc (Promega Corporation, USA) is used. The E. coli tac promoter present in this plasmid in front of the firefly luciferase is replaced with the capA1 promoter with appropriate Shine-Dalgarno sequence from S. aureus. The primers CAPFor 5′-CGGCCAAGCTTACTC-[…] […]-3′ and CAPRev 5′-[…]-3′ are used for this. The primer CAPFor contains the capA1 promoter, the ribosome binding site and the 5′ region of the luciferase gene. After PCR using pBESTluc as template it is possible to isolate a PCR product which contains the firefly luciferase gene with the fused capA1 promoter. This is, after restriction with ClaI and HindIII, ligated into the vector pBESTluc which has likewise been digested with ClaI and HindIII. The resulting plasmid p1a can be replicated in E. coli and can be used as template in the S. aureus in vitro transcription-translation test.
Preparation of S30 Extracts from S. aureus
Six litres of BHI medium are inoculated with a 250 ml overnight culture of an S. aureus strain and allowed to grow at 37° C. until the OD600 nm is 2-4. The cells are harvested by centrifugation and washed in 500 ml of cold buffer A (10 mM Tris acetate, pH 8.0, 14 mM magnesium acetate, 1 mM DTT, 1 M KCl). After renewed centrifugation, the cells are washed in 250 ml of cold buffer A with 50 mM KCl, and the resulting pellets are frozen at −20° C. for 60 min. The pellets are thawed on ice in 30 to 60 min and taken up to a total volume of 99 ml in buffer B (10 mM Tris acetate, pH 8.0, 20 mM magnesium acetate, 1 mM DTT, 50 mM KCl). 1.5 ml portions of lysostaphin (0.8 mg/ml) in buffer B are introduced into 3 precooled centrifuge cups and mixed with 33 ml of the cell suspension each. The samples are incubated at 37° C., shaking occasionally, for 45 to 60 min, before 150 μl of a 0.5 M DTT solution are added. The lysed cells are centrifuged at 30 000×g and 4° C. for 30 min. The cell pellet is taken up in buffer B and then centrifuged again under the same conditions, and the collected supernatants are combined. The supernatants are centrifuged again under the same conditions, and 0.25 volumes of buffer C (670 mM Tris acetate, pH 8.0, 20 mM magnesium acetate, 7 mM Na3 phosphoenolpyruvate, 7 mM DTT, 5.5 mM ATP, 70 μM amino acids (complete from Promega), 75 μg of pyruvate kinase (Sigma, Germany))/ml are added to the upper ⅔ of the supernatant. The samples are incubated at 37° C. for 30 min. The supernatants are dialysed against 2 l of dialysis buffer (10 mM Tris acetate, pH 8.0, 14 mM magnesium acetate, 1 mM DTT, 60 mM potassium acetate) in a dialysis tube with a 3500 Da cut-off with one buffer change at 4° C. overnight. The dialysate is concentrated to a protein concentration of about 10 mg/ml by covering the dialysis tube with cold PEG 8000 powder (Sigma, Germany) at 4° C. The S30 extracts can be stored in aliquots at −70° C.
Determination of the IC50 in the S. aureus In Vitro Transcription-Translation Assay
The inhibition of protein biosynthesis of the compounds can be shown in an in vitro transcription-translation assay. The assay is based on the cell-free transcription and translation of firefly luciferase using the reporter plasmid p1a as template and cell-free S30 extracts obtained from S. aureus. The activity of the resulting luciferase can be detected by luminescence measurement.
The amount of S30 extract or plasmid p1a to be employed must be tested anew for each preparation in order to ensure an optimal concentration in the assay. 3 μl of the substance to be tested, dissolved in 5% DMSO, are provided in an MTP. Then […] of a suitably concentrated plasmid solution p1a are added. […]

Compound: NC[C@H](O)C[C@@H]1NC(=O)[C@@H](N)Cc2cc(ccc2O)-c2ccc(O)c(c2)C[C@@H](C(=O)O)NC1=O [Biphenomycin B, biphenomycin B, reference compound]
- IC50: 1500 nM

From patent US20080300231A1, “Antibacterial amide macrocycles VI” (priority 2005, published 2008)
